The text below walks through data of patent US8017614B2, “Arylindenopyrimidines compound and use as an adenosine A2a receptor antagonists” (priority 2007, dated 2011).

In assay [1] the target is T1, human adenosine A2a receptors (Homo sapiens, UniProt P29274).
T1 construct: expressed in transfected cells; host or cells: CHO-K1
The assay can be described thus: Adenosine A2a receptor functional assay (cAMP-inducible beta-galactosidase reporter, antagonist mode vs NECA). The note with it: CHO-K1 cells overexpressing human adenosine A2a receptors; 50 nM NECA; read-out: A2a cell-based functional Ki. As to the method: Ligand binding assay of adenosine A2a receptor was performed using plasma membrane of HEK293 cells containing human A2a adenosine receptor (PerkinElmer, RB-HA2a) and radioligand [3H] CGS21680 (PerkinElmer, NET1021). Assay was set up in 96-well polypropylene plate in total volume of 200, uL by sequentially adding 20 pL1:20 diluted membrane, pLassay buffer (50 mM Tris HCl, pH7.4 10 mM MgCl2, 1 mM EDTA) containing [3H] CGS2168O, 50, uL diluted compound (4×) or vehicle control in assay buffer. Nonspecific binding was determined by […] NECA. Reaction was carried out at room temperature for 2 hours before filtering through 96 well GF/C filter plate pre-soaked in 50 mM Tris HCl, pH7.4 containing 0.3% polyethylenimine. Plates were then washed 5 times with cold 50 mM Tris HCl, pH7.4, dried and sealed at the bottom. Microscintillation fluid 30, ul was added to each well and the top sealed. Plates were counted on Packard Topcount for [3H]. Data was analyzed in Microsoft Excel and GraphPad Prism programs. […] Plates were counted at 405 nm on Vmax Machine (Molecular Devices). Data was analyzed in Microsoft Excel and GraphPad Prism programs. […]

The next assay deals with T2, A1 (Homo sapiens, UniProt P30542).
T2 sequence (P30542 1-326): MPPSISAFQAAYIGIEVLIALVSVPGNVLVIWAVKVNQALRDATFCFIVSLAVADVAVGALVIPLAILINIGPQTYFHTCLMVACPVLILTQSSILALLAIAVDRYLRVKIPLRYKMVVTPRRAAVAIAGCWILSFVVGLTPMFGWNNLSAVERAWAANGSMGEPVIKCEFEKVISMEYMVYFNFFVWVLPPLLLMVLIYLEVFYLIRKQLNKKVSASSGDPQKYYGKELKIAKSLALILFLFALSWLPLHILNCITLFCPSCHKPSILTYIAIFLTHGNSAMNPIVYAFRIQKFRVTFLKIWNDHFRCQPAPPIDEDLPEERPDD
The assay can be described thus: A1 cell-based functional assay.

Structures are written as SMILES.

T1 sequence (P29274 whole entry): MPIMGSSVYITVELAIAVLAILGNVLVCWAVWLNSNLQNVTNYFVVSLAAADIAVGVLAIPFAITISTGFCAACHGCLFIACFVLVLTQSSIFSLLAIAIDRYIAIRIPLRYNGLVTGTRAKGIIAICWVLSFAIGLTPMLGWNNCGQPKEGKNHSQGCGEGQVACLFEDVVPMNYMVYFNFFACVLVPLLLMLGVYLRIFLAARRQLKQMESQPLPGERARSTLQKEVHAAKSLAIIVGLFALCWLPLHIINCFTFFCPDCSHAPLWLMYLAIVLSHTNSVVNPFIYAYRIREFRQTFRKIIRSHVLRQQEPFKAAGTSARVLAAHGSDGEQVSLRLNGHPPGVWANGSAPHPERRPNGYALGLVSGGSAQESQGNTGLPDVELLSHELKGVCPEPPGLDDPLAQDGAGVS

Consider `CN1CCN(C(=O)c2ccc3c(c2)-c2nc(N)nc(-c4ccccc4)c2C3=O)CC1` [Compound A, 2-Amino-8-(4-methyl-piperazine-1-carbonyl)-4-phenyl-indeno[1,2-d]pyrimidin-5-one], for which the Ki (usually the equilibrium dissociation constant of an inhibitor or competing ligand from its target) in assay [1] stood at 0.0082 µM; on A1, 0.0584 µM.
